Measurements published in PubChem BioAssay (NCI).
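Exposure lasted 48 hours, with cells grown in 96-well plates and compounds tested at five concentrations. GI50 marks 50% less growth. The concentration for full growth arrest is given as TGI.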

Tests used:
Test in all cases: NCI anticancer screen, dose series, 48 h
[1] = system: NCI/ADR-RES ovarian
[2] = system: M14 melanoma
[3] = system: SW-620 colon
[4] = system: KM12 colon
[5] = system: SF-539 CNS
[6] = system: SNB-75 CNS
[7] = system: NCI-H226 lung
[8] = system: SK-MEL-28 melanoma
[9] = system: HCT-15 colon
[10] = system: SR leukemia
[11] = system: CAKI-1 renal
[12] = system: CCRF-CEM leukemia
[13] = system: MOLT-4 leukemia
[14] = system: UACC-257 melanoma
[15] = system: SF-295 CNS
[16] = system: MDA-MB-435
[17] = system: ACHN renal
[18] = system: UO-31 renal
[19] = system: MALME-3M melanoma
[20] = system: RPMI-8226 leukemia
[21] = system: EKVX NSCLC
[22] = system: OVCAR-4 ovarian
[23] = system: 786-0 renal
[24] = system: SNB-19 CNS
[25] = system: NCI-H460 lung
[26] = system: HL-60(TB) leukemia
[27] = system: HOP-62 NSCLC
[28] = system: PC-3 prostate
[29] = system: K-562 leukemia
[30] = system: HOP-92 NSCLC
[31] = system: HS 578T breast
[32] = system: DU-145 prostate
[33] = system: SK-MEL-5 melanoma
[34] = system: HCC-2998 colon
[35] = system: OVCAR-8 ovarian
[36] = system: LOX IMVI melanoma
[37] = system: SF-268 CNS
[38] = system: SN12C renal
[39] = system: UACC-62 melanoma
[40] = system: COLO 205 colon
[41] = system: SK-OV-3 ovarian
[42] = system: T-47D breast
[43] = system: MDA-MB-231 breast
[44] = system: OVCAR-3 ovarian
[45] = system: HCT-116 colon
[46] = system: RXF 393 renal
[47] = system: OVCAR-5 ovarian
[48] = system: U251 CNS
[49] = system: BT-549 breast
[50] = system: A549 NSCLC
[51] = system: TK-10 renal
[52] = system: A498 renal
[53] = system: NCI-H522 lung
[54] = system: SK-MEL-2 melanoma
[55] = system: HT29 colon
[56] = system: IGROV1 ovarian
[57] = system: MCF7 breast

Compound: O=C(CSc1nc2sc3c(c2c(=O)n1-c1ccc(Cl)cc1)CCCC3)NNC(=O)Nc1ccc(Cl)c(C(F)(F)F)c1
- GI50 [1]: 6.57 µM
- TGI [1]: 97.3 µM
- GI50 [2]: 3.42 µM
- TGI [2]: 14.1 µM
- GI50 [3]: 3.16 µM
- TGI [3]: 13.2 µM
- GI50 [4]: 3.75 µM
- TGI [4]: > 100 µM
- GI50 [5]: 6.53 µM
- TGI [5]: 21.2 µM
- GI50 [6]: 2.01 µM
- TGI [6]: 7.88 µM
- GI50 [7]: 2.89 µM
- TGI [7]: 11.3 µM
- GI50 [8]: 4.48 µM
- TGI [8]: 17.3 µM
- GI50 [9]: 3.59 µM
- TGI [9]: 18.6 µM
- GI50 [10]: 3.3 µM
- TGI [10]: 46.1 µM
- GI50 [11]: 1.99 µM
- TGI [11]: 6.17 µM
- GI50 [12]: 3.65 µM
- TGI [12]: > 100 µM
- GI50 [13]: 2.74 µM
- TGI [13]: 14.1 µM
- GI50 [14]: 2.94 µM
- TGI [14]: 12.6 µM
- GI50 [15]: 3.11 µM
- TGI [15]: 8.87 µM
- GI50 [16]: 3.67 µM
- TGI [16]: 14.6 µM
- GI50 [17]: 3.56 µM
- TGI [17]: 16.9 µM
- GI50 [18]: 2.85 µM
- TGI [18]: 29.5 µM
- GI50 [19]: 2.45 µM
- TGI [19]: 6.82 µM
- GI50 [20]: 2.99 µM
- TGI [20]: 17.9 µM
- GI50 [21]: 2.68 µM
- TGI [21]: 8.85 µM
- GI50 [22]: 1.92 µM
- TGI [22]: 4.31 µM
- GI50 [23]: 4.23 µM
- TGI [23]: 16 µM
- GI50 [24]: 4.08 µM
- TGI [24]: > 100 µM
- GI50 [25]: 3.16 µM
- TGI [25]: 10.9 µM
- GI50 [26]: 3.18 µM
- TGI [26]: 17.7 µM
- GI50 [27]: 4.3 µM
- TGI [27]: 19.1 µM
- GI50 [28]: 2.05 µM
- TGI [28]: 6.62 µM
- GI50 [29]: 2.51 µM
- TGI [29]: > 100 µM
- GI50 [30]: 1.44 µM
- TGI [30]: 3.97 µM
- GI50 [31]: 6.93 µM
- TGI [31]: 73.1 µM
- GI50 [32]: 3.86 µM
- TGI [32]: > 100 µM
- GI50 [33]: 4.06 µM
- TGI [33]: 14.7 µM
- GI50 [34]: 3.04 µM
- TGI [34]: 9.42 µM
- GI50 [35]: 3.12 µM
- TGI [35]: 11.9 µM
- GI50 [36]: 1.76 µM
- TGI [36]: 3.49 µM
- GI50 [37]: 6.21 µM
- TGI [37]: > 100 µM
- GI50 [38]: 3.3 µM
- TGI [38]: 12.9 µM
- GI50 [39]: 2.5 µM
- TGI [39]: 10 µM
- GI50 [40]: 2.05 µM
- TGI [40]: 4.7 µM
- GI50 [41]: 4.66 µM
- TGI [41]: 20.4 µM
- GI50 [42]: 1.83 µM
- TGI [42]: 4.2 µM
- GI50 [43]: 4.45 µM
- TGI [43]: 20.5 µM
- GI50 [44]: 2.95 µM
- TGI [44]: 10.6 µM
- GI50 [45]: 1.87 µM
- TGI [45]: 3.99 µM
- GI50 [46]: 2.58 µM
- TGI [46]: 9.32 µM
- GI50 [47]: 4.4 µM
- TGI [47]: 19.7 µM
- GI50 [48]: 2.93 µM
- TGI [48]: 10.9 µM
- GI50 [49]: 3.5 µM
- TGI [49]: 14.4 µM
- GI50 [50]: 3.3 µM
- TGI [50]: 15.7 µM
- GI50 [51]: 4.3 µM
- TGI [51]: 23.6 µM
- GI50 [52]: 2.58 µM
- TGI [52]: 8.61 µM
- GI50 [53]: 1.96 µM
- TGI [53]: 6.05 µM
- GI50 [54]: 2.46 µM
- TGI [54]: 7.24 µM
- GI50 [55]: 3.05 µM
- TGI [55]: 9.54 µM
- GI50 [56]: 4.71 µM
- TGI [56]: 91.7 µM
- GI50 [57]: 2.77 µM
- TGI [57]: 17.6 µM
